Data published in US7109338B2, “1,2-disubstituted 1,4-dihydro-4-oxoquinoline compounds” (priority 1999, dated 2006).
Values after ≈ are worked out from the molar mass of the structure shown. Where two headings read alike, the source gives them in different places.

How the values were obtained:
[1] = test system: Poliovirus type 1 (Polio 1, Sabin); experiment: microbe, parasite or virus in culture; assay type: cell-based; settings: Enterovirus C, HeLa S3, read-out: IC50 Polio 1
[2] = test system: echovirus type 11 (Echo 11, Gregory); experiment: In vitro anti-picornavirus activity (MTT), Echo 11; assay type: cell-based; settings: Enterovirus B; HeLa-S3 cells, MTT method, 37° C.
[3] = test system: coxsackievirus type A7 (CA7); experiment: In vitro anti-picornavirus activity (MTT), CA7; assay type: cell-based; settings: Coxsackievirus; HeLa-S3 cells, MTT method, 37° C.
[4] = test system: coxsackievirus type B4 (CB4,JVB); experiment: In vitro anti-picornavirus activity (MTT), CB4; assay type: cell-based; settings: Coxsackievirus; HeLa cells, MTT method, 37° C.
[5] = test system: human rhinovirus type 1B (HRV 1B, B632); experiment: Anti-rhinovirus activity (MTT), HRV1B; assay type: cell-based
[6] = test system: HRV 2 (HGP); experiment: Anti-rhinovirus activity (MTT), HRV2; assay type: cell-based, human rhinovirus
[7] = test system: HRV 89 (41617-Gallo); experiment: Anti-rhinovirus activity (MTT), HRV89; assay type: cell-based, human rhinovirus
[8] = Cytotoxicity (MTT, without virus), HeLa; settings: human, HeLa cells (uninfected)
[9] = Cytotoxicity (MTT, without virus), HeLa-S3; settings: human, HeLa-S3 cells (uninfected)
[10] = Cytotoxicity (MTT, without virus), HeLa(Ohio); settings: human, HeLa (Ohio strain) cells (uninfected)
[11] = test system: HRV1A (E28); experiment: Anti-rhinovirus activity (MTT), HRV1A; assay type: cell-based, human rhinovirus; settings: HRV1A
[12] = test system: HRV14 (1059); experiment: Anti-rhinovirus activity (MTT), HRV14; assay type: cell-based, human rhinovirus
[13] = test system: HRV3(FEB); experiment: Anti-rhinovirus spectrum (MTT), HRV3; assay type: cell-based, human rhinovirus; settings: Enterovirus; Table VII, rhinovirus serotype HRV3
[14] = test system: HRV5; experiment: Anti-rhinovirus spectrum (MTT), HRV5; assay type: cell-based, human rhinovirus; settings: Enterovirus; Table VII, rhinovirus serotype HRV5
[15] = test system: HRV8(MRH); experiment: Anti-rhinovirus spectrum (MTT), HRV8; assay type: cell-based, human rhinovirus; settings: Enterovirus; Table VII, rhinovirus serotype HRV8
[16] = test system: HRV10 (204-CV14); experiment: Anti-rhinovirus spectrum (MTT), HRV10; assay type: cell-based, human rhinovirus; settings: Enterovirus; Table VII, rhinovirus serotype HRV10
[17] = test system: HRV13 (353); experiment: Anti-rhinovirus spectrum (MTT), HRV13; assay type: cell-based, human rhinovirus; settings: Enterovirus; Table VII, rhinovirus serotype HRV13
[18] = test system: HRV16 (11757); experiment: Anti-rhinovirus spectrum (MTT), HRV16; assay type: cell-based, human rhinovirus; settings: Enterovirus; Table VII, rhinovirus serotype HRV16
[19] = test system: HRV21 (47); experiment: Anti-rhinovirus spectrum (MTT), HRV21; assay type: cell-based, human rhinovirus; settings: Enterovirus; Table VII, rhinovirus serotype HRV21
[20] = test system: HRV29 (5582); experiment: Anti-rhinovirus spectrum (MTT), HRV29; assay type: cell-based, human rhinovirus; settings: Enterovirus; Table VII, rhinovirus serotype HRV29
[21] = test system: HRV31 (41F); experiment: Anti-rhinovirus spectrum (MTT), HRV31; assay type: cell-based, human rhinovirus; settings: Enterovirus; Table VII, rhinovirus serotype HRV31
[22] = test system: HRV32 (363); experiment: Anti-rhinovirus spectrum (MTT), HRV32; assay type: cell-based, human rhinovirus; settings: Enterovirus; Table VII, rhinovirus serotype HRV32
[23] = test system: HRV33 (1200); experiment: Anti-rhinovirus spectrum (MTT), HRV33; assay type: cell-based, human rhinovirus; settings: Enterovirus; Table VII, rhinovirus serotype HRV33
[24] = test system: HRV36 (342H); experiment: Anti-rhinovirus spectrum (MTT), HRV36; assay type: cell-based, human rhinovirus; settings: Enterovirus; Table VII, rhinovirus serotype HRV36
[25] = test system: HRV39 (209); experiment: Anti-rhinovirus spectrum (MTT), HRV39; assay type: cell-based, human rhinovirus; settings: Enterovirus; Table VII, rhinovirus serotype HRV39
[26] = test system: HRV41 (56110); experiment: Anti-rhinovirus spectrum (MTT), HRV41; assay type: cell-based, human rhinovirus; settings: Enterovirus; Table VII, rhinovirus serotype HRV41
[27] = test system: HRV50(A2#58); experiment: Anti-rhinovirus spectrum (MTT), HRV50; assay type: cell-based, human rhinovirus; settings: Enterovirus, HRV50, read-out: Anti-rhinovirus activity HRV50
[28] = test system: HRV61 (6669-CV39); experiment: Anti-rhinovirus spectrum (MTT), HRV61; assay type: cell-based, human rhinovirus; settings: Enterovirus; Table VII, rhinovirus serotype HRV61
[29] = test system: clinical isolate (89229T); experiment: microbe, parasite or virus in culture; assay type: cell-based, human rhinovirus; settings: Human rhinovirus sp.; Table VII, clinical isolate (89229T); read-out: Anti-rhinovirus activity Clinically isolated strain
[30] = Human rhinovirus sp., HRV1B, HeLa (Ohio strain) cells, MTT method, 33° C., read-out: IC50 HRV1B
[31] = Human rhinovirus sp., HRV2, HeLa (Ohio strain) cells, MTT method, 33° C., read-out: IC50 HRV2
[32] = Human rhinovirus sp., HRV89, HeLa (Ohio strain) cells, MTT method, 33° C., read-out: IC50 HRV89
[33] = Human rhinovirus sp., HeLa, read-out: IC50 HRV 1A
[34] = Human rhinovirus sp., HRV14, HeLa (Ohio strain) cells, MTT method, 33° C., read-out: IC50 HRV 14

`CCn1c(-c2ccc(OC)c(C)c2)c(C)c(=O)c2c(C)c(OCC(C)C)ccc21` [Compound A191, 1-Ethyl-2-(3-methyl-4-methoxyphenyl)-3,5-dimethyl-6-isobutoxy-1,4-dihydro-4-oxoquinoline] gave an IC50 [1] of 0.4 µg/mL (≈ 1.02 µM), an IC50 [2] of 0.19 µg/mL (≈ 0.483 µM) and an IC50 [3] of 2.5 µg/mL (≈ 6.35 µM). It also gave an IC50 [4] of 1.6 µg/mL (≈ 4.07 µM), an IC50 [5, 30] of 1.3 µg/mL (≈ 3.3 µM) and an IC50 [6, 31] of 0.15 µg/mL (≈ 0.381 µM). For the same compound, the IC50 [7, 32] was 0.2 µg/mL (≈ 0.508 µM), the melting point was 149 °C and the CC50 at 4 days [8] was > 4 µg/mL. For the same compound, the CC50 at 4 days [9] was > 4 µg/mL and the CC50 at 4 days [10] was > 4 µg/mL.

With `CCn1c(-c2ccccc2)c(C)c(=O)c2cc(C(C)C)ccc21` [Compound A37, 1-Ethyl-2-phenyl-3-methyl-6-isopropyl-1,4-dihydro-4-oxoquinoline] the IC50 [1] was 1.1 µg/mL (≈ 3.6 µM), the IC50 [2] was 0.91 µg/mL (≈ 2.98 µM) and the IC50 [3] was 3.8 µg/mL (≈ 12.4 µM). The IC50 [4] was 6.7 µg/mL (≈ 21.9 µM), the IC50 [5, 30] was 1 µg/mL (≈ 3.27 µM) and the IC50 [6, 31] was 0.83 µg/mL (≈ 2.72 µM). For the same compound, the IC50 [7, 32] was 0.54 µg/mL (≈ 1.77 µM), the melting point was 159 to 165 °C and the CC50 at 4 days [8] was 11 µg/mL (≈ 36 µM). The CC50 at 4 days [9] was 12 µg/mL (≈ 39.3 µM) and the CC50 at 4 days [10] was 11 µg/mL (≈ 36 µM).

In the case of `CCn1c2c(c(=O)c3cc(C(C)C)ccc31)Cc1ccsc1-2` [Compound D50, 10-Ethyl-7-isopropyl-5,10-dihydro-4H-thieno[3′,2′:4,5]cyclopenta[1,2-b]quinolin-5-one], the IC50 [1] was 0.64 µg/mL (≈ 2.07 µM), the IC50 [2] was 0.27 µg/mL (≈ 0.873 µM) and the IC50 [3] was 1.9 µg/mL (≈ 6.14 µM). For the same compound, the IC50 [4] was 0.82 µg/mL (≈ 2.65 µM), the IC50 [11, 33] was 2.2 µg/mL (≈ 7.11 µM) and the IC50 [5, 30] was 0.25 µg/mL (≈ 0.808 µM). It also gave an IC50 [6, 31] of 0.2 µg/mL (≈ 0.646 µM), an IC50 [12, 34] of 1.3 µg/mL (≈ 4.2 µM) and an IC50 [7, 32] of 0.41 µg/mL (≈ 1.32 µM). For the same compound, the melting point was 168 to 169 °C, the CC50 at 4 days [8] was 7.8 µg/mL (≈ 25.2 µM) and the CC50 at 4 days [9] was > 10 µg/mL. The CC50 at 4 days [10] was > 10 µg/mL.

With `Cc1c(-c2ccccc2)n(-c2ccccc2)c2ccc(C(C)C)cc2c1=O` [Compound A320, 1,2-Diphenyl-3-methyl-6-isopropyl-1,4-dihydro-4-oxoquinoline] the IC50 [1] was > 5 µg/mL, the IC50 [2] was 0.15 µg/mL (≈ 0.424 µM) and the IC50 [3] was > 5 µg/mL. For the same compound, the IC50 [4] was > 5 µg/mL, the IC50 ([11]; Enterovirus, read-out: Anti-rhinovirus activity HRV1A) was > 5 µg/mL and the IC50 [5, 30] was 0.12 µg/mL (≈ 0.339 µM). For the same compound, the IC50 ([5]; Table VII, rhinovirus serotype HRV1B, read-out: Anti-rhinovirus activity HRV1B) was 0.12 µg/mL (≈ 0.339 µM), the IC50 ([6]; Enterovirus, Table VII, rhinovirus serotype HRV2, read-out: Anti-rhinovirus activity HRV2) was 0.051 µg/mL (≈ 0.144 µM) and the IC50 [6, 31] was 0.051 µg/mL (≈ 0.144 µM). For the same compound, the IC50 ([12]; Enterovirus, Table VII, rhinovirus serotype HRV14, read-out: Anti-rhinovirus activity HRV14) was > 5 µg/mL, the IC50 ([7]; Enterovirus, Table VII, rhinovirus serotype HRV89, read-out: Anti-rhinovirus activity HRV89) was 0.051 µg/mL (≈ 0.144 µM) and the IC50 [7, 32] was 0.051 µg/mL (≈ 0.144 µM). For the same compound, the IC50 [13] was > 5 µg/mL, the IC50 [14] was > 5 µg/mL and the IC50 [15] was > 5 µg/mL. The IC50 [16] was 0.021 µg/mL (≈ 0.0594 µM), the IC50 [17] was 0.23 µg/mL (≈ 0.651 µM) and the IC50 [18] was 0.023 µg/mL (≈ 0.0651 µM). For the same compound, the IC50 [19] was 0.024 µg/mL (≈ 0.0679 µM), the IC50 [20] was 0.079 µg/mL (≈ 0.224 µM) and the IC50 [21] was 0.046 µg/mL (≈ 0.13 µM). It also gave an IC50 [22] of 0.051 µg/mL (≈ 0.144 µM), an IC50 [23] of 0.23 µg/mL (≈ 0.651 µM) and an IC50 [24] of 0.082 µg/mL (≈ 0.232 µM). For the same compound, the IC50 [25] was < 0.017 µg/mL, the IC50 [26] was 0.066 µg/mL (≈ 0.187 µM) and the IC50 [27] was 0.02 µg/mL (≈ 0.0566 µM). For the same compound, the IC50 [28] was 0.21 µg/mL (≈ 0.594 µM), the IC50 [29] was 0.017 µg/mL (≈ 0.0481 µM) and the melting point was 225 °C. For the same compound, the CC50 at 4 days [8] was > 5 µg/mL, the CC50 at 4 days [9] was > 5 µg/mL and the CC50 at 4 days [10] was > 5 µg/mL.

With `CCn1c2c(c(=O)c3cc(C(C)C)ccc31)Cc1c-2ccn1C` [Compound D53, 4-Ethyl-7-isopropyl-1-methyl-4,9-dihydro-10H-pyrrolo[2′,3′:4,5]cyclopenta[1,2-b]quinolin-9-one] the IC50 [1] was 1.8 µg/mL (≈ 5.87 µM), the IC50 [2] was 0.68 µg/mL (≈ 2.22 µM) and the IC50 [3] was > 10 µg/mL. For the same compound, the IC50 [4] was > 3.3 µg/mL, the IC50 [11, 33] was > 10 µg/mL and the IC50 [5, 30] was 1.6 µg/mL (≈ 5.22 µM). The IC50 [6, 31] was 0.91 µg/mL (≈ 2.97 µM), the IC50 [12, 34] was 2.3 µg/mL (≈ 7.51 µM) and the IC50 [7, 32] was 1.4 µg/mL (≈ 4.57 µM). For the same compound, the melting point was 91 to 93 °C, the CC50 at 4 days [8] was > 10 µg/mL and the CC50 at 4 days [9] was > 10 µg/mL. For the same compound, the CC50 at 4 days [10] was > 10 µg/mL.
